Results reported in patent publication US11866430B2, “Naphthyridinone compounds useful as T cell activators” (priority 2018, dated 2024).
Like-named read-outs stand apart in the source and are kept apart here.

Experiments:
human DGKζ = human DGKζ (Homo sapiens (Human), UniProt Q13574); assay: DGKζ LIPGLO assay (extruded liposome substrate); assay type: biochemical
How it was run: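 Sf9-derived DGKζ was premixed 10 min with PC/DAG/PS liposomes (100 nm extruded) in MOPS pH 7.5 buffer containing NaCl, MgCl2, CaCl2 and DTT.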

Human venous whole blood = assay: Human Whole Blood IFN-γ Assay; assay type: cell-based
Description: Human venous whole blood (22.5 μL per well), obtained from healthy donors, was pre-treated with compounds for one hour at 37° C. in a humidified 95% air/5% CO2 incubator. The blood was stimulated with 2.5 μL anti-human CD3 and anti-CD28 mAb at a final concentration of 1 μg/mL each for 24 hours at 37° C. IFN-γ in the supernatants was measured using AlphaLISA kit (Cat #AL217).

naïve human CD8 T cells = assay: CellTiter-Glo CD8 T Cell Proliferation Assay; assay type: cell-based; conditions: Homo sapiens, T-cell, CellTiter-Glo CD8 T cell proliferation, normalized; read-out: CD8 GLO normalized EC50
[1] = tested on: Jurkat AP1-luciferase Reporter; assay: DGK AP1-Reporter Assay; assay type: cell-based
How it was run: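 Jurkat cells carrying a lentiviral AP1-luciferase reporter received 30 nl compound per well for 20 min at 37 °C and 5% CO2. They were then stimulated for 6 h with anti-CD3 solution at 0.4 μg/mL; reference wells received 4 μg/mL and unstimulated wells medium only. Readout was Steady-Glo luciferase luminescence (RLU).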

[2] = extruded liposome substrate, read-out: DGKζ LIPGLO IC50
[3] = Homo sapiens, human whole blood, anti-CD3 plus anti-CD28 as baseline, 3 μM Example 40 co-stimulation as 100% activation, read-out: INF-γ Whole Blood Normalized Agonist EC50
[4] = DGKζ LIPGLO IC50, extruded liposome substrate
[5] = Homo sapiens, read-out: INF-γ Whole Blood Agonist EC50
[6] = Homo sapiens, Jurkat, read-out: API-Luciferase Reporter IC50, Table 3
[7] = Homo sapiens, Jurkat, read-out: DGKAP1 Lucif Reporter IC50, Table 4
[8] = read-out: API-Luciferase Reporter IC50, Table 3
[9] = human whole blood, anti-CD3 plus anti-CD28 as baseline, 3 μM Example 40 co-stimulation as 100% activation, read-out: INF-γ Whole Blood Normalized Agonist EC50

Sequence of human DGKζ (Q13574 other isoform, or with tags, fused parts or gaps): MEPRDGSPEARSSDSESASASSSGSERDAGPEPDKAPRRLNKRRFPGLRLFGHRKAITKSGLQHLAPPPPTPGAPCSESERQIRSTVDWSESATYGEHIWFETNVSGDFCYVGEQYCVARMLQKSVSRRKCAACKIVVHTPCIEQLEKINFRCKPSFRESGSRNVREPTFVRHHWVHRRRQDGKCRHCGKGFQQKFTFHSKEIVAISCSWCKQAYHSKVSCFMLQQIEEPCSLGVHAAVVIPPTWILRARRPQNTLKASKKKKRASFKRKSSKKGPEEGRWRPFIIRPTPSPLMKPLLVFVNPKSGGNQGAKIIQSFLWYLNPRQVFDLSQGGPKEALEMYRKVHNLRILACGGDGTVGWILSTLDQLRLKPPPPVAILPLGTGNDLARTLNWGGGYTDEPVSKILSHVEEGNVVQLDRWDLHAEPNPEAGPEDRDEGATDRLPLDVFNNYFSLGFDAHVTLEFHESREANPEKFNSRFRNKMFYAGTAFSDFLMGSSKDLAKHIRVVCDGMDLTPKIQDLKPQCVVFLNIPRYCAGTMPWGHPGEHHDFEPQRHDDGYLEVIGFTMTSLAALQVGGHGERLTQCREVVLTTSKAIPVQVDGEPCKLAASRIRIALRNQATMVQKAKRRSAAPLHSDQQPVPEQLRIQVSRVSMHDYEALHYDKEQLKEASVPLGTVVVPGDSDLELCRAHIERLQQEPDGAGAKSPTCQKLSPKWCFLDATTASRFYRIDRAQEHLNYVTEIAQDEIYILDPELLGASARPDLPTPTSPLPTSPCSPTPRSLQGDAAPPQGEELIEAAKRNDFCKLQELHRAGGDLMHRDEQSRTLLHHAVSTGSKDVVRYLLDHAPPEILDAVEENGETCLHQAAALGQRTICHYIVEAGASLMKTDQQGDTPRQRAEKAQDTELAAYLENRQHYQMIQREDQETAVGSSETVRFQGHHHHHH

With `Cn1c(=O)c(C#N)c(N2CCN(C(C)(C)c3ccc(F)cc3)CC2)c2nc(Cl)ccc21` [Example 425, 6-chloro-4-{4-[2-(4-fluorophenyl)propan-2-yl]piperazin-1-yl}-1-methyl-2-oxo-1,2-dihydro-1,5-naphthyridine-3-carbonitrile] the IC50 (human DGKζ; [2]) was > 240 µM, the EC50 (Human venous whole blood; [3]) was 10 µM and the EC50 (naïve human CD8 T cells) was 0.19 µM.
`COc1cc(F)ccc1C(c1ccc(F)cc1)N1CCN(c2c([N+](=O)[O-])c(=O)n(C)c3ccc(C#N)nc23)CC1` (single isomer, unassigned) [Example 124, 8-(4-((4-fluoro-2-methoxyphenyl)(4-fluorophenyl)methyl)piperazin-1-yl)-5-methyl-7-nitro-6-oxo-5,6-dihydro-1,5-naphthyridine-2-carbonitrile] gave an IC50 (human DGKζ; [4]) of 0.16 µM, an EC50 (Human venous whole blood; [3]) of 0.1 µM and an EC50 (Human venous whole blood; [5]) of 0.14 µM. It also gave an EC50 (naïve human CD8 T cells) of 0.02 µM, an IC50 [1, 6] of 0.1 µM and an IC50 [1, 7] of 0.57 µM.
`Cc1cccc(CN2CCN(c3c(C#N)c(=O)n(C)c4ccc(Cl)nc34)CC2)c1O` [Example 391, 6-chloro-4-{4-[(2-hydroxy-3-methylphenyl)methyl]piperazin-1-yl}-1-methyl-2-oxo-1,2-dihydro-1,5-naphthyridine-3-carbonitrile] gave an IC50 (human DGKζ; [2]) of 2.1 µM, an EC50 (Human venous whole blood; [3]) of 3.5 µM and an IC50 [1, 6] of 0.07 µM.
Molecule `C#CCn1c(=O)c([N+](=O)[O-])c(N2CCN(C(c3ccc(F)cc3)c3ccc(F)cc3O)CC2)c2nc(C#N)ccc21` (single isomer, unassigned) [Example 121, 8-(4-((4-fluoro-2-hydroxyphenyl)(4-fluorophenyl)methyl)piperazin-1-yl)-7-nitro-6-oxo-5-(prop-2-yn-1-yl)-5,6-dihydro-1,5-naphthyridine-2-carbonitrile] has an IC50 (human DGKζ; [2]) of 0.055 µM, an EC50 (Human venous whole blood; [3]) of 0.55 µM and an IC50 [1, 8] of 0.34 µM.
For `CC(c1ccc(F)cc1)N1CCN(c2c([N+](=O)[O-])c(=O)n(C)c3ccc(C#N)nc23)CC1` (single isomer, unassigned) [Example 44, 8-(4-(1-(4-fluorophenyl)ethyl)piperazin-1-yl)-5-methyl-7-nitro-6-oxo-5,6-dihydro-1,5-naphthyridine-2-carbonitrile], the IC50 (human DGKζ; [2]) was 1.3 µM, the EC50 (Human venous whole blood; [3]) was 0.9 µM and the IC50 [1, 6] was 0.35 µM.
`COc1ccc2c(n1)c(N1CCN(C(c3ccc(F)cc3)c3ccc(F)cc3OC)CC1)c(C#N)c(=O)n2C` (racemic) [Example 412, 4-{4-[(4-fluoro-2-methoxyphenyl)(4-fluorophenyl)methyl]piperazin-1-yl}-6-methoxy-1-methyl-2-oxo-1,2-dihydro-1,5-naphthyridine-3-carbonitrile] gave an IC50 (human DGKζ; [2]) of 0.6 µM, an EC50 (Human venous whole blood; [3]) of 3.01 µM and an EC50 (naïve human CD8 T cells) of 0.3 µM.
`C#CCn1c(=O)c([N+](=O)[O-])c(N2CCN(C(C)c3ccc(F)cc3)CC2)c2nc(C#N)ccc21` (single isomer, unassigned) [Example 136, 8-(4-(1-(4-fluorophenyl)ethyl)piperazin-1-yl)-7-nitro-6-oxo-5-(prop-2-yn-1-yl)-5,6-dihydro-1,5-naphthyridine-2-carbonitrile] gave an IC50 (human DGKζ; [4]) of 0.21 µM, an EC50 (Human venous whole blood; [9]) of 1.16 µM and an IC50 [1, 6] of 0.23 µM.
Molecule `Cc1ccc(CN2CCN(c3c(C#N)c(=O)n(C)c4ccc(Br)nc34)CC2)c(O)c1` [Example 372, 6-bromo-4-{4-[(2-hydroxy-4-methylphenyl)methyl]piperazin-1-yl}-1-methyl-2-oxo-1,2-dihydro-1,5-naphthyridine-3-carbonitrile] has an IC50 (human DGKζ; [2]) of 8.8 µM, an EC50 (Human venous whole blood; [3]) of 5 µM and an IC50 [1, 6] of 0.14 µM.
`COc1cc(F)ccc1C(c1ccc(F)cc1)N1CCN(c2c(C#N)c(=O)n(C)c3ccc(Br)nc23)CC1` (single isomer, unassigned) [Example 17, 6-bromo-4-{4-[(4-fluoro-2-methoxyphenyl)(4-fluorophenyl)methyl]piperazin-1-yl}-1-methyl-2-oxo-1,2-dihydro-1,5-naphthyridine-3-carbonitrile] gave an IC50 (human DGKζ; [2]) of 9.4 µM, an EC50 (Human venous whole blood; [3]) of 1.15 µM and an EC50 (Human venous whole blood; [5]) of 0.67 µM. The IC50 [1, 6] was 0.35 µM and the IC50 [1, 7] was 1.33 µM.
`Cc1ccc(CN2CCN(c3c(C#N)c(=O)n(C)c4ccc(Cl)nc34)CC2)c(F)c1` [Example 423, 6-chloro-4-{4-[(2-fluoro-4-methylphenyl)methyl]piperazin-1-yl}-1-methyl-2-oxo-1,2-dihydro-1,5-naphthyridine-3-carbonitrile] was tested, and the IC50 (human DGKζ; [2]) was 33 µM, the EC50 (Human venous whole blood; [3]) was 10 µM and the IC50 [1, 6] was 1.88 µM.
Work on `C#CCn1c(=O)c([N+](=O)[O-])c(N2CCN(C(C)c3ccc(F)cc3)CC2)c2nc(C#N)ccc21` (single isomer, unassigned) [Example 137, 8-(4-(1-(4-fluorophenyl)ethyl)piperazin-1-yl)-7-nitro-6-oxo-5-(prop-2-yn-1-yl)-5,6-dihydro-1,5-naphthyridine-2-carbonitrile] yielded an IC50 (human DGKζ; [4]) of 0.85 µM, an EC50 (Human venous whole blood; [9]) of 5 µM and an IC50 [1, 8] of 0.19 µM.
